Experimental data: patent US10668034B2, “Pharmaceutical compositions and the treatment of overactive bladder” (Velicept Therapeutics, Inc., priority 2010, dated 2020)
Read-outs that look alike come from different tables or passages of the source.

How the values were obtained:
[1] = test system: urinary bladder strips from rats; assay: EFS-induced contractions of rat urinary bladder strips (Example 2); assay type: cell-based; details: for EC50: EFS-induced contractions, read-out: EC50 for inhibiting bladder contraction
Protocol: In order to investigate a possible pharmacological synergy on the combination of the muscarinic and the beta receptor pathways, the combination of the muscarinic antagonist oxybutynin and the beta-3 adrenoceptor agonist CL-316,243 (a very selective and potent rodent β3-AR agonist) was tested on EFS (electrical field stimulation)-induced responses in urinary bladder strips from rats.
Longitudinal strips of rat detrusor muscle were suspended in organ bath chambers containing oxygenated Krebs solution (pH 7.4, gassed with 95% O2 and 5% CO2 at 37° C.). Prazosin (1 μM) was added to the Krebs solution in order to block al-adrenoceptors. Bladder responses were measured using isometric transducers and recorded using a data acquisition system. Tissues were allowed to equilibrate under a resting tension of 1.0 g for 60 min. Following the equilibration period, strips were exposed to KCl (80 mM) to measure their viability. Tissues were washed and equilibrated for another 45 min period. Bladder strips were then subjected to EFS using the following parameters: maximal current 800 mA, frequency of 15 Hz, square pulse of 0.1 ms, trains of 4 s every 2 min. After approximately 15 min (when EFS contractions had stabilized), the selective β2-adrenoceptor antagonist ICI-118551 (30 nM) was incubated for 15 min. After stabilization of the contractile response, a concentration response curve was obtained for each bladder strip by adding CL-316,243 or oxybutynin (1 nM to 10 μM) (or corresponding vehicle) in log unit concentration increments.
In a second series of experiments, a single concentration of oxybutynin at 10 nM (determined from the first series of experiments) was added to organ bath chambers followed by various doses of CL-316,243 to provide a concentration-response curve for CL-316,243.

[2] = test system: isolated rat urinary bladder strips; assay: EFS-induced contractions of rat isolated urinary bladder strips, beta-3 agonist with or without 10 nM antimuscarinic (Example 3); assay type: cell-based
Protocol: In this study various combinations of β3-adrenoceptor agonists and antimuscarinics were tested in isolated rat urinary bladder strips. Urinary bladder smooth muscle strips were obtained from female rats (Sprague-Dawley strain, body weight 240-360 g). Two strips per bladder were prepared and connected to tension transducers in 5 ml organ baths containing Krebs-Henseleit solution (kept at 37° C., pH 7.4, gassed with 95% O2/5% CO2). Prazosin (1 μM) was added to the Krebs solution in order to block al-adrenoceptors. Strips were equilibrated for at least 60 min at 1.0 g resting tension, during which tissues were washed every 15 min. Then, each strip was exposed to 80 mM KCl to verify its viability. After another 45 min wash-out period, strips were subjected to EFS (electrical field stimulation parameters: constant current 800 mA; frequency of 15 Hz; square pulse of 0.1 ms, train of 4 s every 2 min). […] Cumulative concentrations of solabegron (10 nM-10 μM), mirabegron (10 nM-10 μM) and CL-316,243 (1 nM-10 μM) were then added in half-log increments. At the end of CRC's, 10 μM forskolin (FSK) was added to determine maximal relaxation (FIG. 1). […] Each CRC was fit using non-linear regression (GraphPad Prism® software) to obtain Emax and pIC50 (−log IC50) values. Mean CRCs for vehicle and treated strips were fit in parallel and statistically compared. The first fit was used to compare Emax values and when these values were not statistically different, a second fit was performed, sharing Emax, in order to obtain pIC50 values for each pair of curves. Differences were considered statistically significant when the null hypothesis could be rejected at a risk a of less than 0.05.

[3] = test system: muscarinic receptor subtypes M1, M2, M3, M4 and M5; details: cited from earlier work
[4] = Drug interaction study, post void residual (PVR) volume by bladder ultrasound; assay type: in vivo, human
Protocol: A drug interaction study was conducted in healthy human volunteers, using repeat oral doses of solabegron and oxybutynin administered singly as well as in combination with each other, in order to assess the effects on pharmacokinetic and pharmacodynamic parameters, as measured by post void residual (PVR) volumes. PVR was measured in subjects treated with each agent alone as well as in combination at steady-state. The study was a two-cohort randomized, open label, repeat dose, 3-way crossover study in healthy adult subjects. Two marketed formulations of oxybutynin were used in the study: i) Ditropan IR®, which is immediate release (IR) oxybutynin; and ii) Ditropan XL® which is extended release (XL) oxybutynin. The total daily dose given was 20 mg. Solabegron was administered as tablets. […] Each study session was separated by a washout period of at least 5 days. Safety assessments included vital signs, ambulatory blood pressure monitoring (ABPM) physical examinations, clinical laboratory safety tests, 12-lead ECGs, PVR volume, to assess the potential for urinary retention, and adverse events. […] Bladder ultrasound scans to measure PVR volumes were conducted on Day-1 (one day prior to the dosing period) and Day 6 (sixth day of the dosing period) of each study session.

[5] = in the presence of oxybutynin (10 nM)
[6] = in the presence of 10 nM oxybutynin
[7] = in the presence of 10 nM tolterodine
[8] = in the presence of 10 nM solifenacin

SMILES | Emax of beta-3 agonist vs vehicle (in words) [2, 6] | IC50 of beta-3 agonist vs vehicle (in words) [2, 6] | Emax of beta-3 agonist vs vehicle (in words) [2, 7] | IC50 of beta-3 agonist vs vehicle (in words) [2, 7] | Discrimination between M3 and M1/M4 subtypes (in words) [3] | Selectivity for M3 over the M2/M5 subtypes [3] [fold] | also measured
C[C@H](Cc1ccc2c(c1)OC(C(=O)[O-])(C(=O)[O-])O2)NC[C@H](O)c1cccc(Cl)c1.[Na+].[Na+] [CL-316,243] | significantly increased | significantly decreased | significantly increased |  |  |  | Maximal inhibition of EFS-induced contractions ([1]; CL-316,243 alone): 65%; EC50 ([1]; CL-316,243 alone): 7.2 nM; Shift to the left of concentration-response curve ([1]; in the presence of a minimally effective dose of oxybutynin (10 nM)): ~3.5 fold; Maximal inhibition of EFS-induced contractions [1, 5]: 80%; EC50 [1, 5]: 2.1 nM
Nc1nc(CC(=O)Nc2ccc(CCNC[C@H](O)c3ccccc3)cc2)cs1 [mirabegron] |  | significantly lower | appeared to be increased | significantly lower |  |  | IC50 of beta-3 agonist vs vehicle (in words) [2, 8]: significantly lower
CCN(CC)CC#CCOC(=O)C(O)(c1ccccc1)C1CCCCC1 (stereo not shown) [oxybutynin, 4-diethylaminobut-2-ynyl 2-cyclohexyl-2-hydroxy-2-phenyl-ethanoate] |  |  |  |  | do not distinguish | ~10 | Effect of oxybutynin alone on EFS-induced responses (in words) ([1]; oxybutynin at a concentration of 10 nM, first series of experiments): minimal contraction
O=C(O)c1cccc(-c2cccc(NCCNC[C@H](O)c3cccc(Cl)c3)c2)c1 [solabegron, 3′-[(2-{[(2R)-2-(3-chlorophenyl)-2-hydroxyethyl]amino}ethyl)amino]biphenyl-3-carboxylic acid] | significantly increased | significantly lower | significantly increased | significantly lower |  |  | Mean increase from baseline in PVR volume ([4]; healthy human subjects, repeat oral doses for 5 days, Day 6 vs Day-1, solabegron 200 mg BID, oxybutynin IR 5 mg QID, oxybutynin XL 10 mg BID): 4.4 mL; Changes in PVR volume (in words) ([4]; healthy subjects): minimal changes; Emax of beta-3 agonist vs vehicle (in words) [2, 8]: significantly increased
O=C(O[C@H]1CN2CCC1CC2)N1CCc2ccccc2[C@@H]1c1ccccc1 [solifenacin] |  |  |  |  | do not distinguish | ~10 | 
Cc1ccc(O)c([C@H](CCN(C(C)C)C(C)C)c2ccccc2)c1 [tolterodine] |  |  |  |  |  |  | Discrimination between the five muscarinic subtypes (in words) [3]: does not discriminate between the five subtypes
